Common to all, as to assay: DTP human tumour cell line panel, 48 h
In assay [1] the test system is MOLT-4 leukemia.
Assay [2] concerns TK-10 renal.
Assay [3] relates to MDA-MB-435.
Assay [4] concerns UO-31 renal.
Assay [5] has as its system M14 melanoma.
The subject of assay [6] is OVCAR-4 ovarian.
The test system of assay [7] is KM12 colon.
The test system of assay [8] is A498 renal.
Assay [9] has as its system NCI-H460 lung.
Assay [10] has as its system U251 CNS.

“And” between values parts separate entries of the source, which are not always exact repeats. Identical values can stand only once.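 Assay format: 96-well plates, 48-hour exposure. GI50 marks 50% less growth. TGI: concentration producing complete growth inhibition.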

As to `Cc1c(C(N)=O)sc2c1c(=O)n(Cc1ccccc1)c1nnc(-c3ccc(Br)cc3)n21`, the GI50 – broadly, the concentration at which growth is held to half of that of the control – is 1.64 µM in [1]; 3.33 µM in assay [2]; 3.49 µM in assay [3]; 1.4 µM in assay [4]; 1.51 µM in assay [5]; 2.51 µM in assay [6]. Further, the GI50 in [7] is 3.31 µM; in assay [8] it was 2.3 µM; in assay [9], 0.813 µM; in assay [10], 1.56 µM. The TGI (in general, the concentration at which net growth stops) in assay [1] is 17.3 µM; in [2], 16.3 µM; in assay [3] it was 20.7 µM; in assay [4] it was 11.7 µM; in assay [5] it was 3.67 µM; in assay [6], 15.8 µM. The concentration for total growth inhibition (TGI) in assay [7] worked out at 17.9 µM; in assay [8] it was 12.7 µM; in [9], 6.55 µM; in assay [10] it was 13 µM.

`CC(=O)c1cc(C(=O)c2ccc3c(c2)Sc2ccccc2N3)c2c(C)cccn12`: the GI50 in assay [1] was 0.556 µM; in assay [2] it was 4.73 µM; in assay [3], 0.0464 µM; in assay [4] it was 0.925 µM; in assay [5], 0.198 µM; in assay [6] it was 2.13 µM. For the same molecule, the 50% growth inhibitory concentration (GI50) is 0.307 µM in [7], 0.141 µM in [8], 0.213 µM in assay [9] and 0.325 µM in [10]. The total growth inhibition concentration (TGI) in assay [1] was more than 100 µM; in assay [2] it was more than 100 µM; in assay [3] it was 0.275 µM; in assay [4] it was 98.4 µM; in assay [5], 5.5 µM; in assay [6], more than 100 µM. The TGI in [7] is more than 100 µM; in assay [8] it was 1.9 µM; in assay [9] it was 4.76 µM; in assay [10], 24 µM.

For `CCOC(=O)c1ccc2c(c1)[n+](=O)c(C(C)=O)c(C(F)(F)F)n2[O-]`, the GI50 was 1.31 µM in [1]; 1.39 µM in assay [2]; 1.61 µM in assay [3]; 1.49 µM in assay [4]; 1.7 µM in [5]; 1.36 µM in assay [6]. In addition, the GI50 in [7] is 1.47 µM; in [8], 1.33 µM; in [9], 1.46 µM; in assay [10], 1.48 µM. Also, the TGI came to 3.97 µM in assay [1]; 3.25 µM in assay [2]; 3.21 µM in assay [3]; 3.15 µM in [4]; 3.67 µM in [5]; 3.22 µM in assay [6]. Further, the concentration for total growth inhibition (TGI) stood at 2.89 µM in assay [7], 3.16 µM in assay [8], 2.86 µM in [9] and 3.02 µM in assay [10].

In the case of `NNC(=O)c1ccc(OCc2nc3ccccc3[nH]2)cc1`, the TGI in assay [1], in [2], in assay [3], in assay [4], in [5] and in assay [6] was more than 100 µM in each case. Also, the total growth inhibition concentration (TGI) in assay [7], in assay [8], in assay [9] and in assay [10] was more than 100 µM in each case.

With `COc1ccc(C2C=C(c3ccc(Cl)cc3)N=C3SC=C(C)N32)c(Br)c1` (centres undefined), the GI50 was 4.12 µM in assay [1]; 4.05 µM in [2]; 3.02 µM in assay [3]; 3.26 µM in assay [4]; 3.99 µM in [5]; 3.89 µM in [6]. In addition, the GI50 in [7] is 2.26 µM; in assay [8] it was 4.18 µM; in assay [9] it was 2.24 µM; in assay [10], 3.34 µM. The total growth inhibition concentration (TGI) was more than 100 µM in assay [1]; 14.4 µM in assay [2]; 14.9 µM in [3]; 15.4 µM in assay [4]; 15.7 µM in assay [5]; 34.6 µM in assay [6]. Besides, the total growth inhibition concentration (TGI) in assay [7] was determined as 5.77 µM; in [8], 16.2 µM; in assay [9], 5.87 µM; in assay [10], 13.1 µM.

`Cc1cc(Nc2cc(N3CCN(C)CC3)nc(Sc3ccc(NC(=O)C4CC4)cc3)n2)n[nH]1`: the GI50 in [1] was 4.21 µM; in assay [2], more than 10 µM; in assay [3], 2.11 µM; in assay [4], 3.54 µM; in assay [5], 1.48 µM; in assay [6], more than 10 µM. Further, the GI50 in assay [7] was 0.0461 µM; in assay [8], 1.74 µM; in [9], 0.537 µM; in assay [10] it was 3.05 µM. Moreover, the total growth inhibition concentration (TGI) in assay [1], in assay [2], in assay [3], in [4], in [5] and in assay [6] was more than 10 µM each time. For the same molecule, the total growth inhibition concentration (TGI) in assay [7] was more than 10 µM; in assay [8], 8.38 µM; in [9], more than 10 µM; in [10], more than 10 µM.

Turning to `Cc1cc(Cl)ccc1Nc1nc(C(F)(F)F)ccc1C(=O)N/N=C/c1ccccc1Cl`, the GI50 is 1.29 µM in assay [1]; 1 µM in [2]; 2.29 µM in assay [3]; 1.29 µM in assay [4]; 0.874 µM in assay [5]; 0.422 µM in assay [6]. The GI50 in [7] is 0.902 µM; in assay [9], 0.85 µM; in assay [10], 0.526 µM. Moreover, the TGI in [1] was more than 100 µM; in [2], 16.1 µM; in [3], 20.9 µM; in assay [4], 4.15 µM; in assay [5], 7.83 µM; in [6], more than 100 µM. In addition, the TGI in assay [7] was found to be 8.14 µM; in assay [8], 3.14 µM; in assay [9], 4.84 µM; in assay [10], 4.86 µM.

Turning to `CN1CCN(CCOc2cc(OC3CCOCC3)c3c(Nc4c(Cl)ccc5c4OCO5)ncnc3c2)CC1`, the GI50 is 14.6 µM and > 10 µM in assay [1]; 0.671 µM and 0.517 µM in assay [2]; 13.5 µM and > 10 µM in [3]; 0.42 µM and 0.373 µM in assay [4]; 15.4 µM and > 10 µM in assay [5]; 13.5 µM and > 10 µM in [6]. For the same molecule, the GI50 is 1.32 µM and 2.23 µM in [7]; 0.529 µM and 1.37 µM in assay [8]; 18.6 µM and > 10 µM in assay [9]; 11.2 µM and > 10 µM in assay [10]. Moreover, the TGI was 49.2 µM and > 10 µM in [1]; 6.4 µM and > 10 µM in assay [2]; 27.2 µM and > 10 µM in assay [3]; 14.5 µM and > 10 µM in [4]; 31.3 µM and > 10 µM in assay [5]; 34.7 µM and > 10 µM in [6]. Further, the concentration for total growth inhibition (TGI) in assay [7] was 15.1 µM and > 10 µM; in assay [8] it was 4.52 µM and > 10 µM; in assay [9] it was 65.6 µM and > 10 µM; in assay [10], 31.1 µM and > 10 µM.

`NC(=Nc1ccc(N)cc1)C(N)=Nc1ccc(N)cc1`: the GI50 in assay [1] was 55.5 µM; in assay [2], more than 100 µM; in assay [3] it was more than 100 µM; in assay [4] it was 33.5 µM; in [5] it was more than 100 µM; in assay [6], more than 100 µM. Also, the GI50 in assay [7] was 61 µM; in assay [8], 25.3 µM; in assay [9] it was more than 100 µM; in [10] it was more than 100 µM. The concentration for total growth inhibition (TGI) in [1], in assay [2], in assay [3], in assay [4], in assay [5] and in assay [6] was more than 100 µM each time. The concentration for total growth inhibition (TGI) in [7], in [8], in [9] and in [10] was more than 100 µM in each case.

For `CCOC(=O)c1cnn2c3ccccc3n(S(=O)(=O)c3ccc(OC)cc3)c12`, the 50% growth inhibitory concentration (GI50) was 0.389 µM in [1]; 25.2 µM in assay [2]; 0.0473 µM in [3]; 0.56 µM in [4]; 0.211 µM in [5]; 1.58 µM in assay [6]. The concentration for 50% growth inhibition (GI50) in [7] is 0.196 µM; in [8], 0.209 µM; in assay [9] it was 0.753 µM; in [10], 0.377 µM. Besides, the TGI in assay [1] was more than 100 µM; in assay [2], more than 100 µM; in [3], more than 100 µM; in assay [4] it was more than 78.7 µM; in assay [5], more than 100 µM; in assay [6], more than 100 µM. The concentration for total growth inhibition (TGI) is 21.9 µM in assay [7], 0.764 µM in [8], more than 100 µM in assay [9] and more than 100 µM in assay [10].

For `CCS(=O)(=O)c1ccc(OC)c(Nc2ncc(-c3ccccc3Cl)o2)c1`, the GI50 was 14.1 µM in [1]; 16.6 µM in assay [2]; 6.73 µM in assay [3]; 6.37 µM in assay [4]; 12.5 µM in assay [5]; 13 µM in assay [6]. Also, the GI50 in assay [7] is 7.59 µM; in [8], 3.17 µM; in assay [9] it was more than 17.7 µM; in [10] it was 18.1 µM. The TGI in [1] is more than 25 µM; in assay [2], more than 25 µM; in assay [3], more than 22.1 µM; in assay [4], more than 25 µM; in [5], more than 25 µM; in assay [6], more than 25 µM. For the same molecule, the TGI is more than 25 µM in [7], 12.1 µM in assay [8], more than 25 µM in assay [9] and more than 25 µM in assay [10].

Source of the values: PubChem BioAssay (NCI).
